No end group written: not given here.

The test system of series [1] is C. albicans SC5314. The settings on record: C. albicans SC5314, CFU assay; EC50 of K10S parent peptide; read-out: EC50 (95% Confidence Intervals); cited from earlier work. The source says: Table 3 In vitro candidacidal activity of in silico designed peptides (ISDPs) against C. albicans SC5314. | column: EC50 ^1 (95% Confidence Intervals)
Series [2] has as its system C. albicans SC5314. The settings on record: C. albicans SC5314, parent K10S peptide; cited from earlier work. How it is done: Candidacidal activity of all tested peptides was very fast. After 30 min, in fact, percental killing ranged from 68% (K10S-SS) to nearly 100% (R-10S-RR and K10S-I).
Series [3] deals with C. albicans SC5314. The settings on record: G. mellonella larvae infected with C. albicans, treated with parent K10S peptide; controls 24 h; previous work; cited from earlier work. How it is done: Therapeutic activity of ISDPs against C. albicans infection was evaluated in G. mellonella larvae. After the inoculum of a lethal dose of yeast cells, a single injection of peptides led to a significant increase in survival of larvae in comparison with infected animals inoculated with saline. The median survival time was 48 h for larvae treated with R10S-RR and K10S-I, and 24 h for larvae treated with K10T-TT and K10S-SS, versus 24 h for the control group. In a previous work, a median survival time of 72 h was reported for larvae treated with the parent K10S peptide in comparison with 24 h for ...

For series [4], the system named is C. albicans SC5314 cells. The settings on record: parent peptide K10S; cited from earlier work. From the text:
The individual amino acid substitutions also influenced the possible mechanism of action of the peptides. […] All ISDPs were characterized by the ability to induce intracellular ROS production (Figure 5).

The subject of series [5] is human red blood cells (hRBCs). Put plainly: Hemolytic activity, hemoglobin release. The series is classed as cell-based. The settings on record: human red blood cells (group 0 Rh+), 50 µM peptide, 37 °C, absorbance 540 nm, PBS 0%, Triton 1% 100%. How it is done:
Hemolytic and cytotoxic effects were determined as previously described. In particular, ISDPs (final concentrations of 25, 50, and 100 µM) were tested for their hemolytic activities against human red blood cells (hRBCs) (group 0 Rh+). After 30 and 120 min incubation at 37 °C, the release of hemoglobin was monitored by measuring the absorbance of the supernatant at 540 nm. Controls for zero hemolysis (blank) and 100% hemolysis consisted of hRBCs suspended in PBS and Triton 1%, respectively.

The subject of series [6] is C. albicans SC5314. It counts as cell-based, Candida albicans. How it is done:
The candidacidal activity of ISDPs was evaluated by conventional colony forming unit (CFU) assays, as previously described. ISDPs were tested at serial dilutions to determine the half maximal effective concentration (EC50) values. Briefly, approximately 500 germinating C. albicans SC5314 cells were suspended in 100 µL of distilled water in the presence or absence (control growth) of ISDPs. After incubation at 37 °C for 6 h, cell suspensions were plated on Sabouraud dextrose agar. CFUs were enumerated after 48–72 h of incubation at 30 °C, and candidacidal activity was determined as a percentage of CFU reduction. Each assay was carried out in triplicate and at least two independent experiments were performed for each condition. EC50 was calculated by nonlinear regression analysis using GraphPad Prism 5 software. Afterwards, the kinetics of ISDPs killing activity, at their 2× EC50 value concentration, was determined by CFU assays up to 6 h. Samples were collected for CFU determination after 5, 10, 15, 20, 30, 60, 120, 240, and 360 min incubation.
Figure 1 Time kinetics of in vitro activity of in silico designed peptides (ISDPs) against Candida albicans SC5314. Peptide concentrations were equal to their 2× EC50 values. The activity is expressed as percental killing; reported data represent mean values ± standard deviation.

Series [7] relates to monkey kidney epithelial cells (LLC-MK2). In words: MTT cytotoxicity assay. It counts as cell-based. The settings on record: 200 µM peptide, 24 h, vs. 100% of untreated control cells. How it is done: MTT assay, based on the ability of metabolically active cells to convert the yellow water-soluble tetrazolium salt into formazan crystals, was used to evaluate peptide cytotoxicity against monkey kidney epithelial cells (LLC-MK2). LLC-MK2 cells were treated with ISDPs (50, 100, and 200 µM) for 24 h. Cells in medium without peptide served as control. After this period, cells were incubated with MTT (5 mg/mL, 10 μL/well) in serum-free medium for 2 h at 37 °C, the medium was removed, and the crystal formazan dye was solubilized by adding isopropanol with 5% HCl 1 M (100 μL). Absorbance was measured at 540 nm.

For KKVTMTCSAS [Peptide K10S], in series [1], the 50% effective concentration (EC50) is 277 nM. In series [2], the “percental killing at 30 min” value is 36.93%. Further, the median survival time in series [3] is recorded as 72 h. Further, the apoptosis induction entry in series [4] is “lack of induction of apoptotic processes”.

For the sequence KKVSMSCSAS [Peptide K10S-SS], the figures for the hemolysis in series [5] (30 min) and in series [5] (120 min) were 2.38% and 2.01%, respectively. For the same sequence, the “percental killing after 30 min” value in series [6] turned out to be 68%. This sequence also gave a cell viability in series [7] of 92.5 ± 0.11%.

(Values after article PMC8227935, “In Silico Predicted Antifungal Peptides: In Vitro and In Vivo Anti-Candida Activity” (Journal of Fungi, 2021).)
